Data set [1] has as its target T1, human glycogen phosphorylase a (Homo sapiens, UniProt P06737).
T1 sequence (P06737 2-847 limits assumed): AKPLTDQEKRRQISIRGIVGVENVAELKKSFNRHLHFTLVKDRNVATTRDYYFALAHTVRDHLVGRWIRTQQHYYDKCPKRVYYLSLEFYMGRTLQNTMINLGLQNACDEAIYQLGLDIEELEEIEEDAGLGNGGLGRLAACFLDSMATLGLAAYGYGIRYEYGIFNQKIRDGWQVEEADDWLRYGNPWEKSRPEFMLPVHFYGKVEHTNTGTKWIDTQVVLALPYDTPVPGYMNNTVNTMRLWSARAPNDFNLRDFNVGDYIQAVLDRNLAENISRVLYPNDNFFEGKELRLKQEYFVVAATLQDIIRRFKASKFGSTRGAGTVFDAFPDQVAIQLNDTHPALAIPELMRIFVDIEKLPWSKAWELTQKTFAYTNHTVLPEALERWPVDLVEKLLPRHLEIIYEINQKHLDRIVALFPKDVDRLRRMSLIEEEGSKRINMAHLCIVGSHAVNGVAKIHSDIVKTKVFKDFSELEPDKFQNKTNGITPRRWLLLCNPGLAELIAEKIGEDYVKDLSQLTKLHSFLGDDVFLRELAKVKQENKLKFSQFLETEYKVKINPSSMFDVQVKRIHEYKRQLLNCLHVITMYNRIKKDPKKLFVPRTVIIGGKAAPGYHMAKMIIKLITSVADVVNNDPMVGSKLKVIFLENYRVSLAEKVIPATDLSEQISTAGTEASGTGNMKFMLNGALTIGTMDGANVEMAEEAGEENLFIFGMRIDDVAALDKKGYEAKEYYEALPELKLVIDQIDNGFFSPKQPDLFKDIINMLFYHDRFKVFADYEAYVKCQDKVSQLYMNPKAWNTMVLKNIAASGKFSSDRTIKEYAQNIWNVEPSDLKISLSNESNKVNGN
The data set can be described thus: Glycogen phosphorylase a activity test (reverse direction, release of inorganic phosphate). Format: biochemical. As to conditions: 10 μM test substance, duplicate determinations, 40 min at room temperature. Here is the method:
Glycogen Phophorylase a Activity Test
All reactions were carried out as duplicate determinations in 96-well microtiter plates (half area plates, Costar No. 3696), and the change in absorption as a consequence of the formation of the reaction product was measured at the wavelength specified below in a Multiskan Ascent Elisa Reader (Lab Systems, Finland).
In order to measure the GPa enzyme activity in the reverse direction, the conversion of glucose 1-phosphate to glycogen and inorganic phosphate was measured by the general method of Engers et al. (Engers H D, Shechosky S, Madsen N B, Can J Biochem 1970 July;48(7):746–754) with the following modifications: human glycogen phosphorylase a (for example containing 0.76 mg of protein/ml (Aventis Pharma Deutschland GmbH), dissolved in buffer solution E (25 mM β-glycerophosphate, pH 7.0, 1 mM EDTA and 1 mM dithiothreitol) was diluted to a concentration of 10 μg of protein/ml with buffer T (50 mM Hepes, pH 7.0, 100 mM KCl, 2.5 mM EDTA, 2.5 mM MgCl26H2O) and addition of 5 mg/ml of glycogen. Test substances were prepared as a 10 mM solution in DMSO and diluted to 50 μM with buffer solution T. To 10 μl of this solution were added 10 μl of 37.5 mM glucose dissolved in buffer solution T and 5 mg/ml of glycogen, and also 10 μl of a solution of human glycogen phosphorylase a (10 μg of protein/ml) and 20 μl of 2.5 mM glucose 1-phosphate. The base value of the activity of glycogen phosphorylase a in the absence of test substance was determined by adding 10 μl of buffer solution T (0.1% DMSO). The mixture was incubated at room temperature for 40 minutes and the released inorganic phosphate was determined by means of the general method of Drueckes et al. (al (Drueckes P, Schinzel R, Palm D, Anal Biochem 1995 Sep. 1;230(1):173–177) with the following modifications: 50 μl of a stop solution of 7.3 mM of ammonium molybdate, 10.9 mM of zinc acetate, 3.6% of ascorbic acid, 0.9% of SDS are added to 50 μl of the enzyme mixture. After 60 minutes of incubation at 45° C., the absorption was measured at 820 nm. To determine the background absorption, the stop solution was added immediately after the addition of the glucose 1-phosphate solution in a separate reaction. This test was carried out at a concentration of 10 μM of the test substance, in order to determine the respective inhibition of glycogen phosphorylase a by the test substance in vitro.

The target in data set [2] is T1, human glycogen phosphorylase a. Described as above. Type of data set: biochemical. As to conditions: 10 μM test substance; duplicate determinations; 40 min at room temperature.

As a reminder, the melting point is the temperature of the solid-liquid transition. With `O=C(NC(=O)c1cc(F)c(F)cc1Cl)Nc1cc(F)ccc1N1CCC(C(=O)[O-])CC1.[Na+]`, the melting point was 160.9 °C.

Broadly, the % inhibition is the percentage by which the read-out fell short of the control. The molecule `O=C(NC(=O)c1cc(F)c(F)cc1Cl)Nc1ccc(-c2n[nH]c(O)n2)cc1OC(F)(F)F` [Example 6f, 1-(2-chloro-4,5-difluorobenzoyl)-3-[2-trifluoromethoxy-4-(5-hydroxy-1H-[1,2,4]triazol-3-yl)phenyl]urea] showed a melting point of more than 350 °C. Moreover, in data set [1], the “% inhibition at 10 μM” value is given as 98%.

Regarding `O=C(NC(=O)c1ccc(F)cc1Cl)Nc1ccccc1-c1nnc(O)o1` [Example 8d, 1-(2-chloro-4-fluorobenzoyl)-3-[2-(5-hydroxy-[1,3,4]oxadiazol-2-yl)phenyl]urea], the melting point is 229.7 °C. The “% inhibition at 10 μM” value in data set [1] stood at 100%.

Molecule `COc1cc(-c2nnc(O)o2)ccc1NC(=O)NC(=O)c1cc(F)c(F)cc1Cl` [Example 8e, 1-(2-chloro-4,5-difluorobenzoyl)-3-[4-(5-hydroxy-[1,3,4]oxadiazol-2-yl)-2-methoxyphenyl]urea] showed a melting point of 293.1 °C. In data set [1], the “% inhibition at 10 μM” value is recorded as 97%.

Molecule `O=C(NC(=O)c1cc(F)c(F)cc1Cl)Nc1ccccc1-c1nnc(O)o1` [Example 8f, 1-(2-chloro-4,5-difluorobenzoyl)-3-[2-(5-hydroxy-[1,3,4]oxadiazol-2-yl)phenyl]urea] yielded a melting point of 222.9 °C. For the same molecule, the “% inhibition at 10 μM” value in data set [1] was determined as 99%.

Molecule `O=C(NC(=O)c1ccc(F)cc1Cl)Nc1ccccc1-c1nnco1` [Example 8g, 1-(2-chloro-4-fluorobenzoyl)-3-(2-[1,3,4]oxadiazol-2-ylphenyl)urea] yielded a melting point of 204 °C. The “% inhibition at 10 μM” value in data set [1] was 98%.

`O=C(NC(=O)c1cc(F)c(F)cc1Cl)Nc1ccccc1-c1nnco1` [Example 8h, 1-(2-chloro-4,5-difluorobenzoyl)-3-(2-[1,3,4]oxadiazol-2-ylphenyl)urea] registered a melting point of 199.6 °C. Besides, the “% inhibition at 10 μM” value in data set [1] is recorded as 100%.

On to `CNc1nn(-c2ccc(NC(=O)NC(=O)c3ccc(F)cc3Cl)c(C)c2)c(=O)o1` [Example 9f, 1-(2-chloro-4-fluorobenzoyl)-3-(2-methyl-4-(5-methylamino-2-oxo-3H-[1,3,4]-oxadiazol-3-yl)phenyl)urea], for which the melting point came out at 198 °C. Also, the “% inhibition at 10 μM” value in data set [1] was found to be 54%.

With `O=C(NC(=O)c1ccc(F)cc1Cl)Nc1ccc(-c2noc(=O)[nH]2)cc1OC(F)(F)F` [Example 11e, 1-(2-chloro-4-fluorobenzoyl)-3-[4-(5-oxo-4,5-dihydro-[1,2,4]oxadiazol-3-yl)-2-trifluoromethoxyphenyl]urea], the melting point was determined as 230.1 °C. The “% inhibition at 10 μM” value in data set [1] is 98%.

For `O=C(NC(=O)c1ccc(F)cc1Cl)Nc1ccc(-c2noc(=O)[nH]2)cc1Cl` [Example 11f, 1-(2-chloro-4-fluorobenzoyl)-3-[2-chloro-4-(5-oxo-4,5-dihydro-[1,2,4]oxadiazol-3-yl)phenyl]urea], the melting point came out at 243.6 °C. In addition, the “% inhibition at 10 μM” value in data set [1] stood at 98%.

For `O=C(NC(=O)c1cc(F)c(F)cc1Cl)Nc1ccccc1-c1ccc(C(=O)O)o1` [Example 13b, 5-{2-[3-(2-chloro-4,5-difluorobenzoyl)ureido]phenyl}furan-2-carboxylic acid], the melting point stood at 239.3 °C. In addition, in data set [1], the “% inhibition at 10 μM” value came to 100%.

With `O=C(NC(=O)c1ccc(F)cc1Cl)Nc1ccccc1-c1ccc(C(=O)O)o1` [Example 13c, 5-{2-[3-(2-chloro-4-fluorobenzoyl)ureido]phenyl}furan-2-carboxylic acid], the melting point was 236.3 °C. Also, the “% inhibition at 10 μM” value in data set [1] stood at 100%.

Molecule `NC(=O)C1CCCN(c2ccc(F)cc2NC(=O)NC(=O)c2cc(F)c(F)cc2Cl)C1` (stereo not drawn) [Example 15c, 1-{2-[3-(2-chloro-4,5-difluorobenzoyl)ureido]-4-fluorophenyl}piperidine-3-carboxamide] gave a melting point of 216 °C. Moreover, the “% inhibition at 10 μM” value in data set [1] was 0.3%.

In turn, `O=C(NC(=O)c1cc(F)c(F)cc1Cl)Nc1cc(F)ccc1N1CCC(C(=O)O)CC1` [Example 16c, 1-{2-[3-(2-chloro-4,5-difluorobenzoyl)ureido]-4-fluorophenyl}piperidine-4-carboxylic acid] came in with a melting point of 221.7 °C.

One may read the IC50 as the concentration needed to halve the response being measured. Molecule `O=C(NC(=O)c1cc(F)c(F)cc1Cl)Nc1cc(F)ccc1N1CCCC(C(=O)O)C1` (stereo not drawn) [Example 17] came in with an IC50 at 10 μM in data set [2] of 10 nM.

Molecule `COC(=O)C1CCN(c2ccc(Cl)cc2NC(=O)NC(=O)c2cc(F)c(F)cc2Cl)CC1` [Example 29] showed an IC50 at 10 μM in data set [2] of 10 nM.

In data set [2], `O=C(NC(=O)c1cc(F)c(F)cc1Cl)Nc1cc(Cl)ccc1N1CCCC(C(=O)O)C1` (stereo not drawn) [Example 31] displayed an IC50 at 10 μM of 10 nM.

On to `COC(=O)c1ccc(N2CCCC(C(=O)O)C2)c(NC(=O)NC(=O)c2ccc(F)cc2Cl)c1` (stereo not drawn) [Example 34], for which the “% inhibition at 10 μM” value in data set [1] stood at 3.2%.

As to `CCOC(=O)C1CCCN(c2ccc(F)cc2NC(=O)NC(=O)c2cc(F)c(F)cc2Cl)C1` (stereo not drawn) [Example 35], the “% inhibition at 10 μM” value in data set [1] amounted to 0.3%.

As for `CCOC(=O)C1CCCN(c2ccc(F)cc2NC(=O)NC(=O)c2ccc(F)cc2Cl)C1` (stereo not drawn) [Example 36], the “% inhibition at 10 μM” value in data set [1] is 0.3%.

Turning to `CCN(CC)C(=O)C1CCCN(c2ccc(F)cc2NC(=O)NC(=O)c2cc(F)c(F)cc2Cl)C1` (stereo not drawn) [Example 37], the “% inhibition at 10 μM” value in data set [1] is recorded as 3.9%.

Regarding `CCN(CC)C(=O)C1CCCN(c2ccc(F)cc2NC(=O)NC(=O)c2ccc(F)cc2Cl)C1` (stereo not drawn) [Example 38], the “% inhibition at 10 μM” value in data set [1] is listed as 4.6%.

For `COC(=O)C1CCN(c2ccc(F)cc2NC(=O)NC(=O)c2cc(F)c(F)cc2Cl)CC1` [Example 39], the IC50 at 10 μM in data set [2] was 10 nM.

With `COC(=O)C1CCN(c2ccc(F)cc2NC(=O)NC(=O)c2ccc(F)cc2Cl)CC1` [Example 40], in data set [1], the “% inhibition at 10 μM” value came out at 4.6%.

For the molecule `O=C(NC(=O)c1ccc(F)cc1Cl)Nc1cc(C(F)(F)F)ccc1N1CCC(C(=O)O)CC1` [Example 43], the “% inhibition at 10 μM” value in data set [1] (10 µM) was 0.15%.

Regarding `COC(=O)C1CCN(c2ccc(S(C)(=O)=O)cc2NC(=O)NC(=O)c2cc(F)c(F)cc2Cl)CC1` [Example 44], the “% inhibition at 10 μM” value in data set [1] was found to be 0.05%.

As for `COC(=O)C1CCN(c2ccc(S(C)(=O)=O)cc2NC(=O)NC(=O)c2ccc(F)cc2Cl)CC1` [Example 45], in data set [1], the “% inhibition at 10 μM” value is 0.8%.

For the origin of these results see patent publication US7138414B2, “Heterocyclically substituted benzoylureas, process for their preparation and their use as pharmaceuticals” (Sanofi-Aventis Deutschland GmbH, priority 2002, dated 2006).
